Experimental data taken from US8563545B2, “Compound useful for the treatment of degenerative and inflammatory diseases” (Galapagos NV, priority 2009, dated 2013).
Where two headings read alike, the source gives them in different places.

Assays:
[1] = Aqueous solubility; type: physicochemical; conditions: kinetic from dmso stock
Description: Starting from a 10 mM stock in DMSO, a serial dilution of the compound was prepared in DMSO. The dilution series was transferred to a 96 NUNC Maxisorb plate F-bottom (Cat no. 442404) and 0.2M phosphate buffer pH7.4 or 0.1M citrate buffer pH 3.0 at room temperature was added.
The final concentration ranged from 200 μM to 2.5 μM in 5 equal dilution steps. […] 200 μM Pyrene was added to the corner points of each 96 well plate and served as a reference point for calibration of Z-axis on the microscope.
The assay plates were sealed and incubated for 1 hr at 37° C. while shaking at 230 rpm. The plates were then scanned under a white light microscope, yielding individual pictures of the precipitate per concentration. The precipitate was analyzed and converted into a number which was plotted onto a graph. The first concentration at which the compound appears completely dissolved is the concentration is reported below, however the true concentration lies somewhere between this concentration and one dilution step higher.
Solubility values are reported in μg/mL

[2] = Plasma protein binding (equilibrium dialysis), human; type: in vitro ADME; conditions: 10 μM, 4 hrs at 37° C.
Description: A 10 mM stock solution of the compound in DMSO was diluted with a factor 5 in DMSO. This solution was further diluted in freshly thawed human, rat, mouse or dog plasma (BioReclamation INC) with a final concentration of 10 μM and final DMSO concentration of 0.5% (5.5 μL in 1094.5 μL plasma in a PP-Masterblock 96 well (Greiner, Cat no. 780285))
A Pierce Red Device plate with inserts (ThermoScientific, Cat no. 89809) was prepared and filled with 750 μL PBS in the buffer chamber and 500 μL of the spiked plasma in the plasma chamber. The plate was incubated for 4 hrs at 37° C. while shaking at 230 rpm. After incubation, 120 μL of both chambers was transferred to 360 μL acetonitrile in a 96-well round bottom, PP deep-well plates (Nunc, Cat no. 278743) and sealed with an aluminum foil lid. The samples were mixed and placed on ice for 30 min. This plate was then centrifuged 30 min at 1200 rcf at 4° C. and the supernatant was transferred to a 96 v-bottom PP plate (Greiner, 651201) for analysis on LCMS.
The plate is sealed with sealing mats (MA96RD-04S) of www.kinesis.co.uk and samples are measured at room temperature on LCMS (ZQ 1525 from Waters) under optimized conditions using Quanoptimize to determine the appropriate mass of the molecule.
The samples were analyzed on LCMS with a flow rate of […]. Solvent A was 15 mM ammonia and solvent B was acetonitrile. The sample was run under positive ion spray on an XBridge C18 3.5 μM (2.1×30 mm) column, from Waters. The solvent gradient has a total run time of 2 minutes and ranges from 5% B to 95% B.
Peak area from the compound in the buffer chamber and the plasma chamber are considered to be 100% compound.

[3] = biological target: TYK2 (Homo sapiens (Human), UniProt P29597); experiment: TYK2 inhibition assay; type: biochemical
Description: After 90 min at 30° C., reactions were stopped by adding 25 μL/well of 150 mM phosphoric acid. […] Plates were washed 6 times with 300 μL per well of a 75 mM phosphoric acid solution and the bottom of the plates was sealed. 40 μL/well of Microscint-20 was added, the top of the plates was sealed and readout was performed using the Topcount (Perkin Elmer). Kinase activity was calculated by subtracting counts per minute (cpm) obtained in the presence of a positive control inhibitor (10 μM staurosporine) from cpm obtained in the presence of vehicle. The ability of a test compound to inhibit this activity was determined as:
(§1) Percentage inhibition=((cpm determined for sample with test compound present−cpm determined for sample with positive control inhibitor)divided by(cpm determined in the presence of vehicle−cpm determined for sample with positive control inhibitor))*100.
Dose dilution series were prepared for the compounds enabling the testing of dose-response effects in the TYK2 assay and the calculation of the IC50 for each compound.

[4] = biological target: JAK3 (Homo sapiens (Human), UniProt P52333); experiment: JAK3 inhibition assay; type: biochemical
Description: Plates were washed 6 times with 300 μL per well of a 75 mM phosphoric acid solution and the bottom of the plates was sealed. 40 μL/well of Microscint-20 was added, the top of the plates was sealed and readout was performed using the Topcount (Perkin Elmer). Kinase activity was calculated by subtracting counts per minute (cpm) obtained in the presence of a positive control inhibitor (10 μM staurosporine) from cpm obtained in the presence of vehicle. The ability of a test compound to inhibit this activity was determined as:
as §1
Dose dilution series were prepared for the compounds enabling the testing of dose-response effects in the JAK3 assay and the calculation of the IC50 for each compound.

[5] = 0.2 M phosphate buffer pH 7.4, 37 °C, pH 7.4, aqueous buffer, 0.2M phosphate buffer pH7.4, read-out: Aqueous solubility pH 7.4
[6] = 37 °C, aqueous buffer, 0.1M citrate buffer pH 3.0, read-out: Aqueous solubility pH 3.0

Sequence of JAK3 (P52333 781-1124): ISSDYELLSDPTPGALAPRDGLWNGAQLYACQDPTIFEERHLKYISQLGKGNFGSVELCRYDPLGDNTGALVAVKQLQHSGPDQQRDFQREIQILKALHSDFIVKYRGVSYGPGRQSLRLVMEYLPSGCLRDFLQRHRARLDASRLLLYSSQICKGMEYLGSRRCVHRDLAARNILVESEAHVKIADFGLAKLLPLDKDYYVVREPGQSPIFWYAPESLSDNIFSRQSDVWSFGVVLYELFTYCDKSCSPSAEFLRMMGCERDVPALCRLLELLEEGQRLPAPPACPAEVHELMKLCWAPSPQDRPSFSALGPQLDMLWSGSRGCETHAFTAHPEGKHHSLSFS
Sequence of TYK2 (P29597 871-1187): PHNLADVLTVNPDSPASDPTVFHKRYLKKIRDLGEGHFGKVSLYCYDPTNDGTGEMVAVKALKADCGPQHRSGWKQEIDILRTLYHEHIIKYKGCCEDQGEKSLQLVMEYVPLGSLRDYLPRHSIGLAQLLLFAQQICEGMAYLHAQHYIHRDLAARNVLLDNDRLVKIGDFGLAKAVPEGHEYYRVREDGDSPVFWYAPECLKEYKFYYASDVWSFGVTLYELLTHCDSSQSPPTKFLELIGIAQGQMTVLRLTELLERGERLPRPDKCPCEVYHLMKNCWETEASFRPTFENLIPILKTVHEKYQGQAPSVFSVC

O=C(Nc1nc2cccc(-c3ccc(CN4CCS(=O)(=O)CC4)cc3)n2n1)C1CC1 [Compound 1, Cyclopropanecarboxylic acid {5-[4-(1,1-dioxo-1-thiomorpholin-4-ylmethyl)-phenyl]-[1,2,4]triazolo [1,5-a]pyridin-2-yl}-amide]
solubility at 1 h [1, 5]: > 0.085 mg/mL
solubility at 1 h [1, 6]: > 0.085 mg/mL
percentage bound to plasma, Human [2]: 76.4%

O=C(Nc1nc2cccc(-c3ccc(CN4CCOCC4)cc3)n2n1)C1CC1 [Compound 2, N-(5-(4-(morpholinomethyl)phenyl)-[1,2,4]triazolo[1,5-a]pyridin-2-yl)cyclopropanecarboxamide]
IC50 [3]: 2.1 µM
solubility at 1 h [1, 5]: > 0.038 mg/mL
solubility at 1 h [1, 6]: > 0.038 mg/mL
percentage bound to plasma, Human [2]: 70.5%
IC50 [4]: 2.84 µM

O=C(Nc1nc2cccc(-c3ccc(C(=O)N4CCS(=O)(=O)CC4)cc3)n2n1)C1CC1 [Compound 10, Cyclopropanecarboxylic acid {5-[4-(1,1-dioxo-1-thiomorpholine-4-carbonyl)-phenyl]-[1,2,4]triazolo [1,5-a]pyridin-2-yl}-amide]
solubility at 1 h [1, 5]: > 0.0879 mg/mL
solubility at 1 h [1, 6]: > 0.0879 mg/mL

O=C(Nc1nc2cccc(-c3ccc(CN4CCC(F)(F)CC4)cc3)n2n1)C1CC1 [Compound 11, Cyclopropanecarboxylic acid {5-[4-(4,4-difluoro-piperidin-1-ylmethyl)-phenyl]-[1,2,4]triazolo [1,5-a]pyridin-2-yl}-amide]
IC50 [3]: 0.126 µM
percentage bound to plasma, Human [2]: 91.25%
IC50 [4]: 0.195 µM
